The source of these data is patent US10238614B2, “Uses of 6-aminohexanoic acid to manage bleeding conditions” (EMORY UNIVERSITY, priority 2013, dated 2019).

The test system of data set [1] is thrombocytopenic patients with hematological malignancies. As to the kind of experiment: Retrospective study of prophylactic oral EACA in outpatients with chronic transfusion-dependent thrombocytopenia. Type of data set: in vivo, human. The text has this: Patients were managed in the outpatient setting despite their severe thrombocytopenia and received EACA as a substitution for prophylactic, threshold directed platelet transfusion.
Patients with chronic transfusion dependent thrombocytopenia who received prophylactic EACA in the outpatient setting were identified through a computerized database search. After initiation of EACA, prophylactic threshold-driven platelet transfusion was discontinued and patients received only therapeutic platelet transfusion in case of bleeding, except when admitted to the inpatient ward. In the inpatient ward, prophylactic platelets were routinely infused when platelets were <10×10^9/L. The number of platelets transfused in the hospital in the absence of bleeding was censored. Patient demographics, diagnosis, treatment, platelet counts, duration of thrombocytopenia, transfusion history, bleeding and outcomes were captured onto study-specific case report forms. Bleeding was captured regardless of patient's location (out-patient or wards) and retrospectively scored based on the ITP WHO classification: grade 1=petechial bleed, grade 2=clinically mild blood loss, grade 3=gross blood loss requiring transfusion, and grade 4=retinal, cerebral, or debilitating blood loss. Statistics were descriptive.
Patients were monitored in the outpatient clinic, with a CBC obtained at least once a week.

Data set [2] deals with patients with thrombocytopenic hemorrhage / severely thrombocytopenic patients with hematological malignancies. The following applies: cited from earlier work.
Where [3] appears, read: ITP WHO bleeding classification grade, median (range).
The mark [4] stands for this setting: severe and refractory thrombocytopenic patients not receiving prophylactic platelet transfusion.

Regarding `NCCCCCC(=O)O` [EACA, 6-aminohexanoic acid], the tolerability result in data set [1] (1 gram orally twice daily, median 47 days) is on record as “overall well tolerated”. For the same molecule, the “patients who discontinued EACA due to platelet recovery” value in data set [1] (18 of 44 patients) was found to be 41%. For the same molecule, in data set [1] (44 patients), the “discontinuation due to intolerance” value is recorded as “no patients discontinued EACA due to intolerance” and the venous thromboembolic event entry is reported as “No patient experienced a venous thromboembolic event”. Further, the “patients who received platelet transfusions while on EACA” value in data set [1] (44 patients, EACA 1 gram orally twice daily, no prophylactic platelet transfusions, 7/44) is 16%. In addition, in data set [1] (setting [3]), the “median bleeding score for the 19 minor bleeding events” value is on record as 1 (1-2) and the “median score for the 10 bleeding episodes treated with transfusion” value is reported as 2 (2-4). Further, the “patients with minor mucocutaneous bleeding that resolved spontaneously and did not require platelet transfusions” value in data set [1] (eleven of 44 patients) came to 25%. In addition, the “patients with grade 3 bleeding” value in data set [1] (hematochezia from a pre-existing rectal ulcer) amounted to 1 patient. Moreover, the “bleeding episodes treated with platelet transfusions” value in data set [1] (in 7/44 patients while on EACA) was 10. In addition, in data set [1] (in eleven patients, epistaxis, bruises, oral, vaginal), the “episodes of minor mucocutaneous bleeding that resolved spontaneously” value is 19 episodes. Further, in data set [1] (in the other 5 patients: hemorrhoid, epistaxis, oral, bladder and vaginal), the “grade 2 mucocutaneous bleeds requiring transfusion” value was determined as 8. Also, the “grade 3-4 bleedings” value in data set [1] (in the setting of a trauma and from a pre-existing condition) is “Two”. Further, the major spontaneous bleeds entry in data set [1] (median platelet counts 8×10^9/L, no prophylactic platelet transfusions, median 47 days, up to 209 days) is on record as “no major spontaneous bleeds were observed”. The “platelet refractory patients with bleeding episodes” value in data set [1] (of the 10 platelet refractory patients, mucocutaneous (3 grade 1, 5 grade 2 and 1 grade 3)) amounted to 4. The “patients who discontinued EACA due to the onset of hematuria” value in data set [1] (one of 44 patients) is on record as 2%. Further, in data set [1] (setting [4]), the overall safety entry is listed as “safe” and the “risk of major spontaneous bleeding” value is “low risk of major spontaneous bleeding”. In addition, the “patient-reported effect on petechiae and subcutaneous bleeds” value in data set [1] (shortly after initiation of EACA) is “rapid disappearance of petechiae and resolution of subcutaneous bleeds”. Besides, in data set [1] (summary statement, 16% of patients transfused), the “median platelet transfusions in transfused patients” value turned out to be 4 units. The “median number of platelets transfusions received to treat bleeding episodes” value in data set [1] (the 7 transfused patients, median (range)) is recorded as 4 (range, 1-8). Also, the “patients with grade 4 bleeding” value in data set [1] (traumatic intracranial hemorrhage secondary to motor vehicle accident) stood at 1 patient. Moreover, in data set [2] (patients with thrombocytopenic hemorrhage, Kalmadi et al., Cancer 2006), the “effect on transfusion requirements” value is listed as “reduces transfusion requirements”. In data set [2] (severely thrombocytopenic patients with hematological malignancies, Antun et al., Cancer 2013), the effect on bleeding entry is “prevents bleeding”.
